# Patent US12559573B2, “Biotin-specific monoclonal antibody and use thereof” (Roche Diagnostics Operations, Inc., priority 2016, dated 2026)
# Assay: Biotin interference in Elecsys TSH sandwich assay
# Settings: control reagent without anti-biotin antibody
# Experimental: The control sample for the Elecsys TSH assay, PreciControl Universal 2 is spiked with rising concentrations of biotin (e.g. 0, 100 and 200 ng/mL final concentration of biotin). Reagent 2 of the Elecsys TSH sales kit containing the anti TSH detection-antibody is used in a unmodified version (control), and a modified version, additionally containing 300 μg/mL of an monoclonal anti Biotin antibody according to the invention. The sandwich assay is performed according to the routine assay protocol for the Elecsys TSH assay: Shortly, 50 μL of Sample (PreciControl Universal 2 with or without biotin) are incubated with 60 μL of Reagent 1 of the Elecsys TSH kit containing the biotinylated anti-TSH antibody and 50 μL of Reagent 2 containing the ruthenylated anti-TSH antibody with or without further addition of 300 μg/mL of the monoclonal anti Biotin antibody. After incubation at 37° C. for 9 min, 40 μL suspension of streptavidin coated magnetic beads of the Elecsys TSH kit are added, the reaction is incubated for another 9 min and finally the reaction mixture is aspirated into the measuring cell where the microparticles are magnetically captured onto the surface of the electrode. Unbound substances are then removed with ProCell. Application of a voltage to the electrode then induces electrochemiluminescense-based emission of light which is measured by a photomultiplier.
compound,measurement,setting,value
"O=C(O)CCCC[C@@H]1SC[C@@H]2NC(=O)N[C@@H]21 [biotin, 5-[(3aS,4S,6aR)-2-oxo-1,3,3a,4,6,6a-hexahydrothieno[3,4-d]imidazol-4-yl]pentanoic acid]",Signal relative to reference signal (sample without biotin),100 ng/mL biotin in sample,53%
same,Signal relative to reference signal (sample without biotin),200 ng/mL biotin in sample,16%
